Test results taken from PMC11912471 (Journal of Medicinal Chemistry, 2025).

Assays:
[1] = no reference printed for this property; cited from earlier work
[2] = cited from earlier work
[3] = Sulforhodamine B (SRB) cytotoxicity assay, neonatal fibroblasts; format: cell-based, human; conditions: human, normal primary neonatal fibroblast cells; 72 hrs @500 µM; supplement csv
Experimental: (§1) Our strategy to identify novel ODC inhibitors was to first screen new analogs for ODC inhibition at 50 μM using our in vitro enzyme activity assay and purified human ODC (Table 1). Those showing significant inhibition were then titrated to provide an ODC IC50 followed by cell-based screening against both cancer (Kelly neuroblastoma) and noncancerous (neonatal fibroblasts) cell lines. For the cancer cell line, higher cytotoxicity was desired and for the noncancerous cell line counter screen, lower cytotoxicity was desired.
(§2) Normal primary human neonatal fibroblast cells (ATCC) were maintained in DMEM medium (Gibco) supplemented with 10% heat-inactivated fetal bovine serum (Hyclone), penicillin (100 IU/mL), and streptomycin (100 μg/mL), nonessential amino acids (0.1 mM) and sodium pyruvate (1 mM). Kelly neuroblastoma cells (Sigma-Aldrich) were maintained in RPMI medium (Corning) supplemented with 10% heat-inactivated fetal bovine serum (Hyclone), penicillin (100 IU/mL), and streptomycin (100 μg/mL). Cell lines were routinely monitored for mycoplasma contamination using the MycoAlert PLUS Mycoplasma Detection Kit (Lonza).
(§3) The colorimetric sulforhodamine B (SRB) assay was used to measure cytotoxicity following treatment with ODC inhibitors. Briefly, Kelly neuroblastoma cells and normal primary human neonatal fibroblast cells were plated in transparent flat 96-well plates and allowed to attach overnight. Cells were treated with control or 500 μM ODC inhibitor for 72 h. Cells were then fixed with 10% TCA at 4 °C for 1 h, washed with deionized water, and dried at room temperature. Cells were stained with 100 μL of 0.4% SRB in 1% acetic acid for 20 min at room temperature, rinsed five times with 1% acetic acid and allowed to dry at room temperature. One hundred μL of 10 mM Tris–HCl pH 7.0 was added to each well, shaken for 10 min at room temperature and absorbance was read at 540 nm. Absorbance values were normalized relative to control readings and converted to percentage by multiplying by one hundred. The percent cytotoxicity was then determined by subtracting the relative percentage of the ODC inhibitor treated readings from the control which is 100%.

[4] = system: normal primary human neonatal fibroblast cells; assay: as above; format: cell-based; conditions: 500 μM
Experimental: as §1, §2, §3

[5] = system: Kelly neuroblastoma cells; assay: Sulforhodamine B (SRB) cytotoxicity assay, Kelly neuroblastoma cells; format: cell-based
Experimental: as §1, §2, §3

[6] = parameters: method as in PMID 11004451; conditions: due to an amino acid transporter; cited from earlier work
[7] = system: polyamine levels in Kelly neuroblastoma cells; assay: Polyamine analysis (HPLC of dansylated polyamines); format: cell-based; conditions: 500 μM inhibitor
Experimental: Polyamines from Kelly neuroblastoma cells treated with 500 μM inhibitors were isolated, dansylated, and analyzed by HPLC. Briefly, polyamines were extracted and protonated in perchloric acid/sodium chloride buffer. To 100 μL of sample, 4.5 nmol of 1,7 diaminoheptane internal standard and 200 μL of 1 M sodium carbonate was added prior to dansylation with 400 μL of 5 mg/mL dansyl chloride (Sigma-Aldrich) for 60 min at 65 °C. One hundred μL of 1 M proline was then added to each reaction and incubated for 20 min at 65 °C. Polyamines were extracted from the mixture using methylene chloride. The methylene chloride was allowed to evaporate, the samples were resuspended in methanol and run through a C18 cleanup column. Samples were then analyzed using a Thermo Scientific/Dionex Ultimate 3000 HPLC, using a Syncronis C18 column (250 × 4.6 mm, […] pore size), and containing a fluorescence detector. The dansylated polyamine peaks were visualized by excitation at 340 nm and emission at 515 nm. The buffers used for elution of the polyamines were as follows: buffer A: 10 mM sodium heptanesulfonate/10% acetontrile at pH 3.4. Buffer B: 100% acetonitrile. The flow rate was 0.7 mL per minute. The column was equilibrated with 55% buffer B/45% buffer A prior to injection of the sample. Upon injection of the sample, elution of polyamines occurs in an isocratic solution of 55% buffer B/45% buffer A for 28 min. The solution was then slowly ramped to 95% buffer B/5% buffer A for 20 min. This gradient was held for 27 min to elute the spermine peak. The solution was then quickly dropped back to 55% buffer B/45% buffer A to re-equilibrate the column prior to the next sample being injected. Using the relative molar response derived from N-dansylated PA and 1,7 diaminoheptane standards, the amount of N-dansylated polyamines was calculated and normalized to total sample protein.

[8] = target: T1, purified human ODC enzyme (Homo sapiens, UniProt P11926); assay: In vitro ODC enzyme activity assay; format: biochemical; conditions: read-out: ODC biochemical inhibition % (50 μM)
T1 construct: His6 (C); made in house; host or cells: E. coli BL21(DE3)
T1 sequence (P11926 1-461): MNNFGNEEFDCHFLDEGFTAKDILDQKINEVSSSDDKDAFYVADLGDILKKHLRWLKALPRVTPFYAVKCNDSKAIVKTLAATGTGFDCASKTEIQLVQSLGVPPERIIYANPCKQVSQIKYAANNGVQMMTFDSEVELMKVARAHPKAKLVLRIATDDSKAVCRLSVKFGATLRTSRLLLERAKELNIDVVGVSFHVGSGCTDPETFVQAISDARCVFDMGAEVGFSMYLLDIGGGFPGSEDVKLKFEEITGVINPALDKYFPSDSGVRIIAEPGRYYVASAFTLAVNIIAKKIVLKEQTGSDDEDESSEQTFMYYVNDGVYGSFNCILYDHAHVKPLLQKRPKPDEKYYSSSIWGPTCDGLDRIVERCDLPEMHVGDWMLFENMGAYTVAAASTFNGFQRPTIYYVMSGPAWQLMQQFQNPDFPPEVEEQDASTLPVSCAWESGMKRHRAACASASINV
Experimental: as §1
In vitro ODC activity was measured using 100 ng of purified human ODC enzyme, as we previously described.[53],[99] ODC was incubated with increasing concentrations of inhibitors for 30 min at room temperature in a buffer containing 25 mM Tris and 0.1 mM EDTA. […] In the cell-based ODC activity assay, Kelly neuroblastoma cells that were treated with 500 μM inhibitors were harvested in a buffer containing 25 mM Tris HCl, 0.1 mM EDTA, and 2.5 mM DTT. […] For both the in vitro and cell-based assay, the microcentrifuge tubes were then placed into scintillation vials containing a piece of filter paper saturated with 200 μL of 0.1 M NaOH to capture the release of radiolabeled carbon dioxide. The samples were incubated in a 37 °C incubator while shaking for 30 min (in vitro) or 2 h (cell-based). The enzymatic reaction was stopped by adding 250 μL of 5 M sulfuric acid to each sample and incubating at 37 °C while shaking for 30 min. The microcentrifuge tubes were removed from the scintillation vials, and 5 mL of scintillation fluid was added. Disintegrations per minute (DPM) of each sample was measured using a TriCarb liquid scintillation counter (PerkinElmer). The specific ODC activity is expressed as nmol CO2/min/mg protein (in vitro) or pmol CO2/min/mg protein (cell-based). The individual ODC inhibitor IC50 values were determined using Graphpad Prism 8.

inhibition at 50 µM [8]: 47%
Structure (SMILES): NCCC[C@](N)(C(=O)O)C(F)F [DFMO, α-difluoromethylornithine]
water solubility (in words) [1]: water-soluble
clearance (in words) [2]: rapid clearance
cytotoxicity at 72 h, 500 µM [3]: 41%
cytotoxic activity against neonatal fibroblasts (in words) ([4]; 72 h): greater cytotoxic activity
Cell cytotoxicity (72 hr @ 500 μM) Neonatal Fibroblasts ([4]; 72 hr, percent cytotoxicity): 41±12%
activity against Kelly neuroblastoma cells (in words) ([5]; 72 h, 500 μM): relatively moderate cytotoxic activity
Cell cytotoxicity (72 hr @ 500 μM) Kelly Neuroblastoma ([5]; 72 hr, 500 μM, percent cytotoxicity): 26±9%
cytotoxicity at 500 µM ([5]; Kelly, 72 hrs @500 µM, supplement csv, read-out: Kelly Neuroblasoma Cells (72 hrs @500 µM) %cytotoxicity): 26%
permeability (in words) [6]: permeable
Kelly Treated Neuroblastoma Cells (Total Spm) ([7]; Control = 2.57+0.47): 3.52+0.35
Kelly Treated Neuroblastoma Cells (Spd) ([7]; Control = 8.52+1.63): 1.99+1.06
Kelly Treated Neuroblastoma Cells (Total Put) ([7]; Control = 9.71+1.31): 0
Kelly Treated Neuroblastoma Cells (Total PA) ([7]; Control = 20.81 +2.67): 5.51+1.06
putrescine level (in words) ([7]; Kelly neuroblastoma cells, Figure 6B): undetected
spermidine and spermine levels (in words) ([7]; Kelly neuroblastoma cells, relative to APA): greatest reductions
